Measurements from patent publication US12391701B2, “Chromene-based compounds, methods and uses thereof” (University of Minho, priority 2019, dated 2025).

Columns and labels:
[1] = tested on: TNBC cell line MDA-MB-231; experiment: Cell viability assay, MDA-MB-231; type: cell-based; conditions: Homo sapiens
[2] = tested on: rapamycin-resistant A498 cell line; experiment: Cell viability, rapamycin-resistant A498; type: cell-based; conditions: for IC50: Homo sapiens, A498
Experimental: (§1) In an embodiment, the antiproliferative activity of compounds MC421, MC409, MC408, MC350, MC416, MC410, MC411, MC415 and MC413 was further determined against drug-resistant renal carcinoma cell lines.
(§2) In an embodiment, cell viability assays were performed. MCF-7, Hs578T and MCF-10A cells were plated in triplicate in 96-multiwell culture plates, at 3000 cells per mL, or 5000 cells per mL for MDA-MB-468 (100 μL/well). The cells were then allowed to adhere in complete medium, over a period of 18-20 hours. Cells were subsequently treated with 7 different concentrations (from 0.1 to 40 μM or 5 to 60 μM) of compounds or control in fresh medium. HL-60, KG-1 and Jurkat cell lines were plated in 96-multiwell culture plates at 50.000 cells/100 μL per well and treated with different concentrations (from 0.001 to 2 μM) of the compounds described (or control). Cells were plated, in triplicate, at an initial density of 2000 cells/well for GAMG, 4000 cells/well for GL18 and 6000 cells/well for U87MG, in 96-well plates, and allowed to adhere for 18-20 hours. Cells were then treated with different concentrations of the compounds (0.005 to 100 μM) or with control. A498 and 786-O cells were plated at 2000 cells per mL, Caki-2 cells were plated at 3000 cells per mL and HK2 cells were plated at 2000 cells per mL in triplicate, in 96-multiwell culture plates (100 μL/well), and allowed to adhere over a period of 18-20 hours in complete medium. The cells were then treated with 7 different concentrations (from 0.1 to 40 μM or 5 to 60 μM) of compounds or control in fresh medium. After 72 h of incubation, the MTS (Promega) reduction assay was performed according to manufacturer's instructions to indirectly assess the percentage of viable cells through metabolic cell viability. After 1-2 hours of incubation with MTS in a humidified atmosphere at 37° C. and 5% CO2, absorbance was measured at 490 nm. For RCC cell lines, sulforhodamine B assay was used according to manufacturer's instructions. The data was log-transformed and the concentration of each compound that decreased the number of viable cells to 50% (IC50) relative to control was calculated using the GraphPad Prism 6 software.

[3] = tested on: cediranib-resistant Caki-2 cell line; experiment: Cell viability, cediranib-resistant Caki-2; type: cell-based; conditions: for IC50: Homo sapiens, CAKI-2
Experimental: as §1, §2

Caenorhabditis elegans = experiment: C. elegans food clearance toxicity assay; type: in vivo; conditions: several concentrations up to 150 μM (MC369 75 μM)
Experimental: In an embodiment, toxicity assessment of the compounds in vivo was performed using Caenorhabditis elegans (C. elegans) as a model. A food clearance-based assay was performed, in which the bacteria consumption over time is a proxy for worm development, health and fertility (FIG. 11). […] Worms were cultivated for 7 days in liquid media using heat-inactivated bacteria (E. coli OP50) as a food source and in the presence of several concentrations of compounds MC421, MC406, MC369 and MC408, MC409, MC407. The rate of food consumption between days 3-5 was used as an indication for worm development, health and also fertility, as after day 3 the worms' progeny will contribute to the faster decline in food abundance. An example is shown for hypothetical compound X. DMSO 1% and 5% are used as negative and positive controls for toxicity, respectively. For this experiment, the compounds were solubilized in DMSO 1% (vehicle). In an embodiment, Bristol strain N2 (provided by the CGC, funded by the NIH Office of Research Infrastructure Programs—P40 OD010440) was used to test each compound's toxicity based on a food clearance assay using C. elegans. The assay was performed on 96-well plates in liquid culture (Voisine et al. 2007; Teixeira-Castro et al. 2015). Each well, with a final volume of 60 μL, comprised the following: approximately 20 worms in egg stage, OP50 bacteria to a final OD of 0.6-0.8 (595 nm) and each compound at the appropriate concentration. The worms were grown with continuous shaking at 180 rpm/20° C. (Shel lab Si series incubator) for 7 days and the absorbance (OD595) was measured daily on a microplate reader (Tecan Infinite M200). The effect of the compounds on C. elegans physiology was monitored by the rate at which the E. coli food suspension was consumed (FIG. 14). Age-synchronized worm eggs were obtained by “egg prep” as follows: adult worms were treated with an alkaline hypochlorite solution (20% bleach, 25% 1M NaOH) for 6 minutes, thereafter centrifuged and washed in M9 buffer twice. The egg pellet was then re-suspended in S-medium to obtain the appropriate egg concentration before being transferred to 96-well plates. The OP50 bacteria was prepared by inactivating an overnight culture (37° C., 180 rpm, Luria Broth media) with 4 freeze-thaw cycles. Before use, the OP50 was re-suspended in supplemented S-medium (cholesterol, streptomycin, penicillin and nystatin). The compounds were prepared in 100% DMSO (Sigma) and diluted up to a test concentration of 1% DMSO to prevent solvent toxicity. For each compound, several concentrations (150-10 μM) were tested, with the exception of MC369 (75-10 μM) due to solubility issues. For each compound, several concentrations were used and the corresponding OD595 consumption rate (slope) for days 3-5 was calculated. The compounds were tested in worms grown in 96 well plates (PlateLayout.xls, Supporting Information), in two independent experiments. For the statistical analysis, the data from both experiments were pooled together and IBM SPSS was used to apply an ANOVA (Brown-Forsythe robust test of equality of means) followed by the Games-Howell post hoc test to compare the different concentrations used for each compound and 5% DMSO (wt/v) to the control (1% DMSO(wt/v)).

## COc1cccc2c1Oc1nc(-c3ccccc3)[nH]c1C2 [MC350, 5-methoxy-2-phenyl-3,9-dihydrochromeno[2,3-d]imidazoles]
[1]
  IC50: 2.52 µM
[2]
  Selectivity Index (vs HK2) A498 Resistant: 12.27
  IC50: 1.62 µM
[3]
  Selectivity Index (vs HK2) Caki-2 Resistant: 32.28
  IC50: 0.646 µM

## COc1cccc2c1Oc1nc(-c3ccccc3F)[nH]c1C2C1c2cccc(OC)c2Oc2nc(-c3ccccc3F)[nH]c21 (centres unmarked) [MC369, 2,2′-bis(2-fluorophenyl)-5,5′-dimethoxy-1,1,9,9′-tetrahydro-9,9′-bichromeno[2,3-]imidazoles]
[1]
  IC50: 2.52 µM
Caenorhabditis elegans
  rate of food consumption between days 3-5 vs 1% DMSO: No statistical differences

## COc1cccc2c1Oc1nc(-c3ccc(F)cc3)[nH]c1C2C1c2cccc(OC)c2Oc2nc(-c3ccc(F)cc3)[nH]c21 (centres unmarked) [MC406, 2,2′-bis(4-fluorophenyl)-5,5′-dimethoxy-1,1,9,9′-tetrahydro-9,9′-bichromeno[2,3-]imidazoles]
[1]
  IC50: 1.29 µM
Caenorhabditis elegans
  rate of food consumption between days 3-5 vs 1% DMSO: No statistical differences

## COc1cccc2c1Oc1nc(-c3ccccc3F)[nH]c1C2 [MC407, 2-(2-fluorophenyl)-5-methoxy-3,9-dihydrochromeno[2,3-d]imidazoles]
[1]
  IC50: 1.65 µM
Caenorhabditis elegans
  rate of food consumption between days 3-5 vs 1% DMSO: No statistical differences

## COc1cccc2c1Oc1nc(-c3ccc(Br)cc3)[nH]c1C2 [MC408, 2-(4-bromophenyl)-5-methoxy-3,9-dihydrochromeno[2,3-d]imidazoles]
[1]
  IC50: 2.56 µM
[2]
  Selectivity Index (vs HK2) A498 Resistant: 2.26
  IC50: 1.07 µM
[3]
  Selectivity Index (vs HK2) Caki-2 Resistant: 123.79
  IC50: 0.028 µM
Caenorhabditis elegans
  rate of food consumption between days 3-5 vs 1% DMSO: No statistical differences

## COc1cccc2c1Oc1nc(-c3ccc(F)cc3)[nH]c1C2 [MC409, 2-(4-fluorophenyl)-5-methoxy-3,9-dihydrochromeno[2,3-d]imidazoles]
[1]
  IC50: 2.7 µM
[2]
  Selectivity Index (vs HK2) A498 Resistant: 5.84
  IC50: 0.51 µM
[3]
  Selectivity Index (vs HK2) Caki-2 Resistant: 9.56
  IC50: 0.33 µM
Caenorhabditis elegans
  rate of food consumption between days 3-5 vs 1% DMSO: No statistical differences

## COc1cccc2c1Oc1nc(-c3cc(F)cc(F)c3O)[nH]c1C2 [MC410, 2,4-difluoro-6-(5-methoxy-3,9-dihydrochromeno[2,3-d]imidazol-2-yl)phenol]
[1]
  IC50: > 30 µM
[3]
  Selectivity Index (vs HK2) Caki-2 Resistant: 2.60
  IC50: 6.41 µM

## COc1ccccc1-c1nc2c([nH]1)Cc1cccc(OC)c1O2 [MC411, 5-methoxy-2-(2-methoxyphenyl)-3,9-dihydrochromeno[2,3-]imidazoles]
[1]
  IC50: 1.78 µM
[3]
  Selectivity Index (vs HK2) Caki-2 Resistant: 1.92
  IC50: 1.62 µM

## COc1cccc2c1Oc1nc(-c3ccc(O)cc3)[nH]c1C2 [MC413, 4-(5-methoxy-3,9-dihydrochromeno[2,3-d]imidazol-2-yl)phenol]
[1]
  IC50: 0.63 µM
[2]
  Selectivity Index (vs HK2) A498 Resistant: 12.32
  IC50: 0.77 µM
[3]
  Selectivity Index (vs HK2) Caki-2 Resistant: 29.6
  IC50: 0.335 µM

## CCOc1ccc(-c2nc3c([nH]2)Cc2cccc(OC)c2O3)cc1 [MC415, 2-(4-ethoxyphenyl)-5-methoxy-3,9-dihydrochromeno[2,3-d]imidazoles]
[1]
  IC50: 1.42 µM
[2]
  Selectivity Index (vs HK2) A498 Resistant: 8.03
  IC50: 0.58 µM
[3]
  Selectivity Index (vs HK2) Caki-2 Resistant: 64.5
  IC50: 0.08 µM

## COc1ccc(-c2nc3c([nH]2)Cc2cccc(OC)c2O3)c(Br)c1O [MC416, 2-bromo-6-methoxy-3-(5-methoxy-3,9-dihydrochromeno[2,3-]imidazol-2-yl)phenol]
[3]
  Selectivity Index (vs HK2) Caki-2 Resistant: 1.97
  IC50: 1.59 µM

## COc1cccc2c1Oc1nc(-c3ccc(Br)cc3)[nH]c1C2C1c2cccc(OC)c2Oc2nc(-c3ccc(Br)cc3)[nH]c21 (centres unmarked) [MC421, 2,2′-bis(4-bromophenyl)-5,5′-dimethoxy-1,1,9,9′-tetrahydro-9,9′-bichromeno[2,3-]imidazoles]
[1]
  IC50: 2.96 µM
[2]
  Selectivity Index (vs HK2) A498 Resistant: 14.56
  IC50: 0.16 µM
[3]
  Selectivity Index (vs HK2) Caki-2 Resistant: 123.50
  IC50: 0.02 µM
Caenorhabditis elegans
  rate of food consumption between days 3-5 vs 1% DMSO: No statistical differences
